Columns and labels:
[1] = tested on: micro-capillary blood flow to skin; assay: Laser Doppler study with closed Hilltop chamber on forearm, Example 5; format: in vivo, human; conditions: applied to the skin at 1/10% in alcohol
Source text: The formulation used in these studies contained nitric oxide dispersed in a lipid matrix. […] Nitric oxide is a very rapid acting molecule, and these studies used a system that employed laser Doppler with a covered chamber. The formulation was placed into the chamber and then attached to the skin by an adhesive layer on the covering. This provided a stable measuring device as determined by multiple normal evaluations of the capillary blood flow without treatment of nitric oxide.
A known positive control, methyl nicotinate, was applied to the skin at a concentration of 1/10% in alcohol. […] The vascular dynamics are such that when the blood vessels dilate physical parameters follow Bernoulli's law. […] The laser Doppler device accurately measured these parameters.
In these studies, the participants were healthy females aged 30 to 55 years. They were in good health as determined by the medical history and were not taking any prescription medications. All study participants read and signed the informed consent statement prior to any study procedures being performed. […]
A Moor Instruments DRT4 Laser Doppler Blood Flow Monitor (Devon, England) was used in these studies. The laser Doppler technique measured blood flow in the microcapillaries of the skin that are close to the skin surface and the blood flow in underlying arterioles and venules that help to regulate skin temperature. […]

[2] = tested on: capillary circulation of the skin; assay: Laser Doppler study of creams in five human subjects, Example 7; format: in vivo; conditions: positive control formulation, 0.1% methyl nicotinate
Source text: This example illustrates delivery of nitric oxide formulations to five human subjects, using procedures and formulations similar to those discussed in Example 5. Each person served as their own control for the testing. A Moor Instruments Laser Doppler was used to determine circulation. […] The formulations used produce positive, almost immediate results when applied to the skin which, in these studies, was manifested by vasodilatation of the cutaneous vascular system.
For each subject, the following creams were applied: a negative control formulation (containing no NO), 0.010 gram of a 10,000 ppm NO formulation, 0.020 gram of a 10,000 ppm NO formulation, and a positive control formulation containing 0.1% methyl nicotinate. The formulations were prepared using procedures similar to those discussed in Example 1.

COC(=O)c1cccnc1 [methyl nicotinate]
laser Doppler response of positive control [1]: rapid response typical of the vasodilator
vasodilatation (laser Doppler) [2]: vasodilatation was observed

Reference: patent publication US9968634B2, “Techniques and systems for treatment of neuropathic pain and other indications” (priority 2012, dated 2018)
